Entries after “also recorded” stand apart in the source; their conditions may differ.
Columns and labels:
mGlu4 = mGlu4 (Homo sapiens (Human), UniProt Q14833); assay: Agonist activity on mGlu4 in transfected HEK293 cells, intracellular calcium release (Fluo4-AM); format: cell-based; details: transfected cells, calcium release; read-out: mGlu4 EC50 μM (n)
From the text: (§1) The EC50's are compared to those of L-AP4 (L-2-amino-4-phosphonobutyric acid) used as a reference.
(§2) Metabotropic glutamate receptors were transiently transfected in HEK293 cells by electroporation as described elsewhere (Brabet I. et al., 1998) and plated in 96-well microplates. The high affinity glutamate transporter EAAC1 was co-transfected with the receptor in order to avoid any influence of glutamate released by the cells in the assay medium. In the experiments carried out by the inventors, Group-III mGluRs were co-transfected with a chimeric G-protein which couples the activation of the receptor to the phospholipase-C (PLC) pathway. Thus receptor activation induces production of inositol phosphate (IP) which in turn induces intracellular Ca^2+ release. Receptor activity was then determined by measurement of the IP production or Ca release as already described (Goudet C. et al., PNAS 2004). For intracellular calcium measurements, cells expressing mGluRs were loaded with Ca2+-sensitive fluorescent dye Fluo-4 AM (Invitrogen, Cergy-Pontoise, France) dissolved in Hanks' balanced salt solution (HBSS, Invitrogen, Cergy-Pontoise, France) containing 2.5 mM Probenicid (Sigma-Aldrich Chemie, Saint-Quentin Fallavier, France) for 1 h at 37° C., then washed and incubated with HBSS containing probenecid. A drug plate was prepared with the various concentrations of agonist to be tested and drug solution was added in each well after 20 s of recording. Fluorescence signals (excitation 485 nm, emission 525 nm) were measured by using the fluorescence microplate reader Flexstation III (Molecular Devices, Saint-Grégoire, France) at sampling intervals of 1.5 s for 60 s. All points are realized in triplicate.
(§3) The dose-response curves were fitted using the GraphPad Prism program and the following equation: y=[(ymax−ymin)/(1+(x/EC50)n)]+ymin where EC50 is the concentration of the compound necessary to obtain the half maximal effect and n is the Hill coefficient.

mGlu8 = mGlu8 (Homo sapiens (Human), UniProt O00222); assay: Agonist activity on mGlu8 in transfected HEK293 cells, intracellular calcium release (Fluo4-AM); format: cell-based
From the text: as §1, §2, §3

mGlu6 = mGlu6 (Homo sapiens (Human), UniProt O15303); assay: Agonist activity on mGlu6 in transfected HEK293 cells, intracellular calcium release (Fluo4-AM); format: cell-based; details: transfected cells, calcium release; read-out: mGlu6 EC50 μM (n)
From the text: as §1, §2, §3

healthy rats = assay: Paw pressure test in healthy rats; format: in vivo, rat; details: i.t., FIG. 1
Protocol: After the induction period of the neuropathy or inflammation, various amounts of derivative 2 dissolved in serum have been injected in rats, (from 0.5 to 15 μg/rat, i.t. from 1 to 30 mg/kg, i.p.) on time-course of vocalization threshold to paw pressure. The results obtained on healthy animals are given on FIG. 1. They are expressed by the time course curves of means+/−SEM of vocalization threshold in grams (n=6-8 rats per group) (A) or by the area under the curve (B). Morphine (10 μg/rat, i.t.) is used as a positive control.
The animals were submitted to the paw pressure test previously described by Randall and Selitto (1957). Nociceptive thresholds, expressed in grams (g), were measured with a Ugo Basile analgesimeter (Apelex, tip diameter of the probe: 1 mm, weight: 30 g) by applying an increasing pressure to the right hind paw of rats until a squeak (vocalization threshold) was obtained (cut-off was 750 g except carrageenan treated animals for which the cut-off was 500 g). The treatments were done after the measurement of two consecutive stable vocalization threshold values and their effects were assessed 15, 30, 45, 60, 90, and 120 min after.
Intrathecal injections were performed, under isoflurane anesthesia (4% induction, 2% maintenance), as previously described (Mestre et al., 1994). […]

[1] = tested on: model of inflammation induced by carrageenan in C57BL6 mice; assay: Von Frey test in carrageenan inflammation model in mice; format: in vivo, mouse
Protocol: FIG. 2 illustrates the effect of intrathecal administration of derivative 2 on the vocalization threshold to paw pressure in the carrageenan inflammatory pain model (effect of derivative 2 (0.5, 1, 5, 10 μg/rat, i.t.) on time-course of vocalization threshold to paw pressure). Morphine (10 μg/rat, i.t.) is used as a positive control.
Adult male Sprague-Dawley rats weighting 175-200 g were purchased from Charles River. C57/BL6 mice were from Elevage Janvier, and homozygous mGlu4 (−/−) and wild-type (+/+) littermates were generated from crosses between heterozygous animals. Animals were housed under controlled environmental conditions (22° C.; 55% humidity) and kept under a 12/12 h light/dark cycle, with food and water ad libitum for a week prior to start the experiments in order to acclimatize. Animal care and experiments were carried out in accordance with the Committee for Research and Ethical Issues of the IASP (Zimmermann M., 1983; Goudet C., 2008).
Mechanical allodynia and hyperalgesia were assessed using the von Frey hair filaments of 3 different bending forces (0.07 g, 0.6 g, 1.4 g). For each filament, 5 stimuli were applied with an interval of 3-5 s.

mGlu8, sequence (O00222 34-908): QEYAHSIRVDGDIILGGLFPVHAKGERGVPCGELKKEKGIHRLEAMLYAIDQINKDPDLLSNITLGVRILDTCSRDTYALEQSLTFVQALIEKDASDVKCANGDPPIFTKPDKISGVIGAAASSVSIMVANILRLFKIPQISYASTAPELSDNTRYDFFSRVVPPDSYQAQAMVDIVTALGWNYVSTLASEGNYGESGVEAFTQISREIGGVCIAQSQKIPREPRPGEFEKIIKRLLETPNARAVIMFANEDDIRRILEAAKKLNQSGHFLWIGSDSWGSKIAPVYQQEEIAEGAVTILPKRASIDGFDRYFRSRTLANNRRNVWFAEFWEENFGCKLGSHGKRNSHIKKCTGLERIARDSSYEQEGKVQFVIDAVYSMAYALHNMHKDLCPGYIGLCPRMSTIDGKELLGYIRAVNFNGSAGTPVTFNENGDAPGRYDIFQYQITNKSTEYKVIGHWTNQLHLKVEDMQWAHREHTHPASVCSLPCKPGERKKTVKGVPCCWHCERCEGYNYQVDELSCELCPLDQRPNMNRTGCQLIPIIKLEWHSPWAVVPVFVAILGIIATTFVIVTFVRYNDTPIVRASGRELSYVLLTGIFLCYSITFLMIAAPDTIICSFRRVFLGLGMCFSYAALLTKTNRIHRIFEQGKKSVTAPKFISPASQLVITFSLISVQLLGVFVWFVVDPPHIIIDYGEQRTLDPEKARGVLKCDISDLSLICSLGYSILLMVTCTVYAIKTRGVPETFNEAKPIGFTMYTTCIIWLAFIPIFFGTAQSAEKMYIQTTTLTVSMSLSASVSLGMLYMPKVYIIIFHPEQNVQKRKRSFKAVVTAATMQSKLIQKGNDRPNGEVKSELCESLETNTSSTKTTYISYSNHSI
mGlu4, sequence (Q14833 33-912): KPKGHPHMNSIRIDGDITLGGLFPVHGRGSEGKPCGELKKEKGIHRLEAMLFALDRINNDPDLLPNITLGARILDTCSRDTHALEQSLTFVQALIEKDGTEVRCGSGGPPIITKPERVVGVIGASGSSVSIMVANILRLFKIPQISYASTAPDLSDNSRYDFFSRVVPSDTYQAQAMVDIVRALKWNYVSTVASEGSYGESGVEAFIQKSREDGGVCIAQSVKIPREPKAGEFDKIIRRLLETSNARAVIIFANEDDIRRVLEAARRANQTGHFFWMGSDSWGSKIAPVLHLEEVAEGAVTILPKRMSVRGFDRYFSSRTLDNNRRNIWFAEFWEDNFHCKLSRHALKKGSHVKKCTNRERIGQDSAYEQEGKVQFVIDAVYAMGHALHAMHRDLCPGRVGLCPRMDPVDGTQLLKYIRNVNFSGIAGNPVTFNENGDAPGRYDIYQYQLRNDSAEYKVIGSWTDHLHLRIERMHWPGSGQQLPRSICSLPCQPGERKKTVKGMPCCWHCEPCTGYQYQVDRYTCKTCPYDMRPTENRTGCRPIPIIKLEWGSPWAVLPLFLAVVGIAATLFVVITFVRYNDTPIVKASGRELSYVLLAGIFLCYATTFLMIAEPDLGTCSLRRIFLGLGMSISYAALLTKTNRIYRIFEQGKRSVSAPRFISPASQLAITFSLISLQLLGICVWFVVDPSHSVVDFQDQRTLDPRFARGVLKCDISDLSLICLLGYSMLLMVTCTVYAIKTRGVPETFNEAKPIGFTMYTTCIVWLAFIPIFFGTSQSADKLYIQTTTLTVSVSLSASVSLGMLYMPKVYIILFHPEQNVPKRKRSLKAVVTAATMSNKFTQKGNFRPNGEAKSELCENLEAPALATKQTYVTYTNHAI
mGlu6, sequence (O15303 25-877): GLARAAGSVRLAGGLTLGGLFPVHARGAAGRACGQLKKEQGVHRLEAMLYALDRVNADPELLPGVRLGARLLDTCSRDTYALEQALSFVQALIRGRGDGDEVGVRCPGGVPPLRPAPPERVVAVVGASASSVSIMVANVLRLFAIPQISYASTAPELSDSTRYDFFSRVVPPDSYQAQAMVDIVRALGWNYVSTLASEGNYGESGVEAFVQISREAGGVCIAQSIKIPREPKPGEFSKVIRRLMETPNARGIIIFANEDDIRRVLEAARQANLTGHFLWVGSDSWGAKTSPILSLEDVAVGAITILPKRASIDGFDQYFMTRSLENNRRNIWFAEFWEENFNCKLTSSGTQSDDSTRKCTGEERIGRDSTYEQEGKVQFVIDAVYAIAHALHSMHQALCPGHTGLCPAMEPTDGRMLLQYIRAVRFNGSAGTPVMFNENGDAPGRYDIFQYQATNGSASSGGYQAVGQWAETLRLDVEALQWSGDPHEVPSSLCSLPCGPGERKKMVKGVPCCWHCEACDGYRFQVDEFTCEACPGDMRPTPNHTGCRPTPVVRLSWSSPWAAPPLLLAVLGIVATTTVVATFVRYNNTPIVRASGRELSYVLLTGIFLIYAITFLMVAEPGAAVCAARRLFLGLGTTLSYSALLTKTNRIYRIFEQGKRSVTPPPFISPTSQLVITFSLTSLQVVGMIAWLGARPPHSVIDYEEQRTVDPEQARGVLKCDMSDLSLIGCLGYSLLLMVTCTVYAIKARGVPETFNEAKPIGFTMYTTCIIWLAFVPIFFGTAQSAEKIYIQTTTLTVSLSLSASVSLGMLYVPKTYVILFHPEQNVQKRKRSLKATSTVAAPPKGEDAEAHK

**Q.** How did the EC50 (mGlu4) turn out when N[C@@H](CCP(=O)(O)C(O)c1ccc(OCC(=O)O)cc1)C(=O)O (stereo partly drawn) [Derivative 2, [((3S)-3-Amino-3-carboxy)propyl][(4-(carboxymethoxy)phenyl)hydroxymethyl]phosphinic Acid] was run?
**A.** 0.11 ± 0.02 µM

**Q.** And the “mGlu8/4 EC50 ratio” value (mGlu8; ratio of mGlu8 EC50 to mGlu4 EC50)?
**A.** 256

**Q.** And the EC50 (mGlu8; transfected cells, calcium release, read-out: mGlu8 EC50 μM (n))?
**A.** 29.2 ± 4.2 µM

**Q.** And the EC50 (mGlu6)?
**A.** 4.2 ± 0.6 µM

**Q.** And the “perception of mechanical acute pain (vocalization threshold to paw pressure)” value (healthy rats)?
**A.** does not modify the perception of the mechanical acute pain

**Q.** What about the “antihyperalgesic effect in mice lacking mGluR4 receptor versus wild-type littermates” value ([1]; 10 μg/mice i.t.) of the same molecule?
**A.** significantly decreased in mice lacking mGluR4 receptor; also recorded: profoundly impaired

**Q.** And the “mechanical hypersensitivity measured using Von Frey filaments” value ([1]; C57BL6 mice, i.t.)?
**A.** dose-dependently reduced the mechanical hypersensitivity

From patent US9212196B2, “Hypophosphorous acid derivatives having antihyperalgic activity and biological applications thereof” (UNIVERSITE PARIS DESCARTES, priority 2011, dated 2015)
